The values that follow come from US9302999B2, “Substituted triazoles as herbicides” (E. I. DU PONT DE NEMOURS AND COMPANY, priority 2012, dated 2016).

What all share (assay type): in vivo
In assay [1] the test system is foxtail, giant (giant foxtail, Setaria faberii). The assay can be described thus: Test A pre-/postemergence: foxtail, giant. To be noted: Setaria faberi, 240 h; for pest or weed control at 125 g/ha: 125 g ai/ha; for pest or weed control at 500 g/ha: 500 g ai/ha. The method in brief:
(§1)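 Visual 0–100 injury ratings (0 no effect, 100 complete control) taken about ten days after treatment, relative to untreated controls. Preemergence treatment was a directed soil spray; postemergence plants were 2–10 cm tall at one- to two-leaf stage. Soil: loam/sand blend.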

In assay [2] the test system is pigweed (Amaranthus retroflexus). The experiment in a line: Test A pre-/postemergence: pigweed. The note with it: Amaranthus retroflexus, 240 h; for pest or weed control at 125 g/ha: 125 g ai/ha; for pest or weed control at 500 g/ha: 500 g ai/ha. The method in brief:
as §1

Assay [3] relates to velvetleaf (Abutilon theophrasti). The assay can be described thus: Test A pre-/postemergence: velvetleaf. To be noted: Abutilon theophrasti, 240 h; for pest or weed control at 125 g/ha: 125 g ai/ha; for pest or weed control at 500 g/ha: 500 g ai/ha. The method in brief:
as §1

Assay [4] relates to crabgrass, large (large crabgrass, Digitaria sanguinalis). The assay can be described thus: Test A pre-/postemergence: crabgrass, large. The note with it: Digitaria sanguinalis, 240 h; for pest or weed control at 125 g/ha: 125 g ai/ha; for pest or weed control at 500 g/ha: 500 g ai/ha. The method in brief: as §1
Setting [5] is: post-emergence, Postemergence, 0 to 100 scale, 0 is no effect, 100 is complete control, read-out: Foxtail, Giant plant response rating.
[6] abbreviates: post-emergence, Postemergence, visual rating on 0 to 100 scale (0 no effect, 100 complete control), approximately ten days, read-out: Foxtail, Giant plant response rating.
Where [7] appears, read: pre-emergence, Preemergence, 0 to 100 scale (0 no effect, 100 complete control), read-out: Plant response rating, Foxtail, Giant.
[8] abbreviates: post-emergence, Postemergence, 0 to 100 scale, 0 is no effect, 100 is complete control, read-out: Pigweed plant response rating.
Where [9] appears, read: post-emergence, Postemergence, visual rating on 0 to 100 scale (0 no effect, 100 complete control), approximately ten days, read-out: Pigweed plant response rating.
The mark [10] stands for this setting: pre-emergence, Preemergence, 0 to 100 scale (0 no effect, 100 complete control), read-out: Plant response rating, Pigweed.
[11] abbreviates: post-emergence, Postemergence, 0 to 100 scale, 0 is no effect, 100 is complete control, read-out: Velvetleaf plant response rating.
[12] abbreviates: post-emergence, Postemergence, visual rating on 0 to 100 scale (0 no effect, 100 complete control), approximately ten days, read-out: Velvetleaf plant response rating.
Setting [13] is: pre-emergence, Preemergence, 0 to 100 scale (0 no effect, 100 complete control), read-out: Plant response rating, Velvetleaf.
Where [14] appears, read: post-emergence, Postemergence, 0 to 100 scale, 0 is no effect, 100 is complete control, read-out: Crabgrass, Large plant response rating.
[15] abbreviates: post-emergence, Postemergence, visual rating on 0 to 100 scale (0 no effect, 100 complete control), approximately ten days, read-out: Crabgrass, Large plant response rating.
[16] abbreviates: pre-emergence, Preemergence, 0 to 100 scale (0 no effect, 100 complete control), read-out: Plant response rating, Crabgrass, Large.
Where [17] appears, read: pre-emergence, Preemergence, 0 to 100 scale where 0 is no effect and 100 is complete control, read-out: Plant response rating, Foxtail, Giant.
Where [18] appears, read: pre-emergence, Preemergence, 0 to 100 scale where 0 is no effect and 100 is complete control, read-out: Plant response rating, Pigweed.
Setting [19] is: pre-emergence, Preemergence, 0 to 100 scale where 0 is no effect and 100 is complete control, read-out: Plant response rating, Velvetleaf.
Setting [20] is: pre-emergence, Preemergence, 0 to 100 scale where 0 is no effect and 100 is complete control, read-out: Plant response rating, Crabgrass, Large.

Like-named read-outs stand apart in the source and are kept apart here.

Take `Cc1nn(-c2ccc(C(F)(F)F)cc2)nc1Oc1csc(C(F)(F)F)c1` [Compound 1, 4-methyl-2-[4-(trifluoromethyl)phenyl]-5-[[5-(trifluoromethyl)-3-thienyl]oxy]-2H-1,2,3-triazole]: the pest or weed control at 125 g/ha in assay [1] (setting [5]) worked out at 50%; in assay [1] (setting [7]), 60%; in assay [2] (setting [8]), 90%; in assay [2] (setting [10]), 60%; in assay [3] (setting [11]) it was 30%; in assay [3] (setting [13]), 0%. The pest or weed control at 125 g/ha in assay [4] (setting [14]) and in assay [4] (setting [16]) was 70% in each case. The pest or weed control at 500 g/ha in assay [1] (setting [6]) was 70%; in assay [1] (pre-emergence, Preemergence, 0 to 100 scale, 0 is no effect, 100 is complete control, read-out: Plant response rating, Foxtail, Giant), 100%; in assay [2] (setting [9]), 100%; in assay [2] (pre-emergence, Preemergence, 0 to 100 scale, 0 is no effect, 100 is complete control, read-out: Plant response rating, Pigweed), 90%; in assay [3] (setting [12]), 70%; in assay [3] (pre-emergence, Preemergence, 0 to 100 scale, 0 is no effect, 100 is complete control, read-out: Plant response rating, Velvetleaf), 10%. The pest or weed control at 500 g/ha came to 90% in assay [4] (setting [15]) and 100% in assay [4] (pre-emergence, Preemergence, 0 to 100 scale, 0 is no effect, 100 is complete control, read-out: Plant response rating, Crabgrass, Large).
With `COCc1nn(-c2ccc(C(F)(F)F)cc2)nc1Oc1cccc(OC(F)(F)F)c1` [Compound 115, 4-(methoxymethyl)-5-[3-(trifluoromethoxy)phenoxy]-2-[4-(trifluoromethyl)phenyl]-2H-1,2,3-triazole], the pest or weed control at 125 g/ha in assay [1] (setting [5]) was 30%; in assay [1] (setting [17]) it was 60%; in assay [2] (setting [8]) it was 80%; in assay [2] (setting [18]), 100%; in assay [3] (setting [11]), 10%; in assay [3] (setting [19]), 0%. In addition, the pest or weed control at 125 g/ha in assay [4] (setting [14]) is 50%; in assay [4] (setting [20]), 80%. For the same compound, the pest or weed control at 500 g/ha in assay [1] (setting [6]) is 60%; in assay [1] (setting [7]) it was 100%; in assay [2] (setting [9]) it was 100%; in assay [2] (setting [10]), 100%; in assay [3] (setting [12]) it was 30%; in assay [3] (setting [13]), 20%. For the same compound, the pest or weed control at 500 g/ha in assay [4] (setting [15]) stood at 80%; in assay [4] (setting [16]), 100%.
Turning to `FCc1nn(-c2ccc(C(F)(F)F)cc2)nc1Oc1cccc(OC(F)(F)F)c1` [Compound 116, 4-(fluoromethyl)-5-[3-(trifluoromethoxy)phenoxy]-2-[4-(trifluoromethyl)phenyl]-2H-1,2,3-triazole], the pest or weed control at 125 g/ha worked out at 30% in assay [1] (setting [5]); 60% in assay [1] (setting [17]); 50% in assay [2] (setting [8]); 50% in assay [2] (setting [18]); 20% in assay [3] (setting [11]); 0% in assay [3] (setting [19]). Besides, the pest or weed control at 125 g/ha was 40% in assay [4] (setting [14]) and 70% in assay [4] (setting [20]). The pest or weed control at 500 g/ha in assay [1] (setting [6]) worked out at 50%; in assay [1] (setting [7]), 90%; in assay [2] (setting [9]), 100%; in assay [2] (setting [10]), 100%; in assay [3] (setting [12]) it was 50%; in assay [3] (setting [13]), 20%. Also, the pest or weed control at 500 g/ha in assay [4] (setting [15]) came out at 80%; in assay [4] (setting [16]) it was 100%.
